Measured values published in patent publication US5474986A, “Method for treating galabiose-binding bacteria infections” (priority 1988, dated 1995).

Test system: E. coli HB101/pPAP5 (agglutination of human erythrocytes)
Test: Inhibition of haemagglutination (HA inhibition) of human erythrocytes by E. coli
Assay type: cell-based
Conditions: for IC50: Escherichia coli, Erythrocyte; for Relative potency (%): in relation to compound 1, calculated from IC50; for ΔΔG^o: ΔΔG°=RTlnKrel, Krel = IC50 ratio to compound 1; for inhibitory power (in words): haemagglutination inhibition, compared with the methyl galabioside / unmodified galabioside
Text: Bacterial strain HB101/pPAPS. Plasmid pPAP5 carries the pap gene cluster isolated from the uropathogenic E.coli isolate J96. The clone produces P pill that mediate agglutination of human erythrocytes by binding to the galabiose-containing P-blood group antigens present on the erythrocyte surface. The galabiose binding property resides in the PapG gene product which is present at the tip of the P pilus as a minor component.
HA of a 1% human P erythrocyte suspension in phosphate-buffered saline was determined for agar-grown organisms by suspending the bacteria to a Klett of 490 (ca 1×10^9 bacteria/mL). A sample of the bacterial suspension (25 μL) was serially diluted in microtiter plates containing 25 μL PBS in each well. An equal volume of erythrocyte suspension was added and after mixing, the plates were incubated at 4° C. for 18 h. The HA endpoint was defined as the dilution in the last well before erythrocyte buttons were formed. The titer was expressed as the reciprocal of the endpoint dilution.
The HA titer of the strains to be tested was determined as described above and the cells were diluted so that each strain gave a titer of 64. The concentration of each of the analogues 1-25 was adjusted to 100 mM and 25 μL of each analogue was serially diluted in microtiter plates containing 25 μL of PBS in each well. The bacterial suspension (25 μL; HA titer=64) was then added to each well. After incubation for 30 min at room temperature, human erythrocytes (1% suspension) were added by gentle mixing and the plates were incubated at 4° C. overnight. The endpoint was defined as the greatest dilution of the analogue (minimal concentration) that gave a 50% inhibition of the HA (IC50).
The IC50 -values given in the tables are mean values from 3 consecutive runs. The ratio of the IC50 -value for an inhibitor and compound 1 is the relative equilibrium constant, Krel. This value was used for the calculation of the difference free energy values (ΔΔG°) using the expression ΔΔG°=RTlnKrel. It should be stressed that the conclusions made here about the nature of the adhesin receptor is based on the assumption that all the inhibitors have similar over-all confirmations oriented in a similar way in the receptor side and that only one type of galablest-specific receptor is present in the adhesin.

[1] = Table 2, glycoside analogs, inhibition of agglutination of human erythrocytes by E. coli, mean of 3 runs
[2] = Table 2, in relation to compound 1 (IC50 0.20 mM)
[3] = Table 2, relative to compound 1 (IC50 0.20 mM)
[4] = Table 1, inhibition of agglutination of human erythrocytes by E. coli, mean of 3 consecutive runs
[5] = Table 2, footnote a: separate inhibition experiment where reference compound 1 showed IC50 = 0.0434 mM
[6] = Table 2, footnote a: separate experiment, relative to compound 1 IC50 = 0.0434 mM

Compound | IC50 [1] | Inhib. power (%) [2] | ΔΔG (kJmol^-1) [3] | IC50 [4] | Relative potency (%) (Table 1) | ΔΔG^o (Table 1) | further results
CO[C@H]1O[C@H](CO)[C@H](O[C@H]2O[C@H](CO)[C@H](O)[C@H](O)[C@H]2O)[C@H](O)[C@H]1O [Compound 23] | 2100 µM | 9.0% | 5.6 kJmol^-1 | – | – | – | –
CO[C@@H]1O[C@H](CO)[C@H](O[C@H]2O[C@H](CF)[C@H](O)[C@H](O)[C@H]2O)[C@H](O)[C@H]1O [Compound 14] | – | – | – | 350 µM | 56% | 0.323 kcal/mol | –
CO[C@@H]1O[C@H](CO)[C@H](O[C@H]2O[C@H](CO)[C@H](O)[C@H](O)[C@H]2O)[C@H](O)[C@H]1O [Compound 1, Galα1-4GalβOMe, reference compound] | 200 µM | – | 0.00 kJmol^-1 | 200 µM | – | 0 kcal/mol | IC50 [5]: 43.4 µM
C[Si](C)(C)CCO[C@@H]1O[C@H](CO)[C@H](O[C@H]2O[C@H](CO)[C@H](O)[C@H](O)[C@H]2O)[C@H](O)[C@H]1O [Compound 20] | 49 µM | 400% | -3.2 kJmol^-1 | – | – | – | –
CO[C@@H]1O[C@H](CO)[C@H](O[C@H]2O[C@H](CO)[C@H](O)C[C@H]2O)[C@H](O)[C@H]1O [Compound 6] | – | – | – | 6500 µM | 3.0% | 1.96 kcal/mol | –
CO[C@@H]1O[C@H](CO)[C@H](O[C@H]2O[C@H](CO)[C@H](O)[C@H](O)[C@H]2O)C[C@H]1O [Compound 3] | – | – | – | 1000 µM | 19% | 0.932 kcal/mol | –
CO[C@@H]1O[C@H](CO)[C@H](O[C@H]2O[C@H](CO)[C@H](O)[C@H](O)[C@H]2O)[C@H](C)[C@H]1O [Compound 15] | – | – | – | 390 µM | 50% | 0.382 kcal/mol | –
CO[C@@H]1O[C@H](CO)[C@H](O[C@H]2O[C@H](CO)[C@H](F)[C@H](O)[C@H]2O)[C@H](O)[C@H]1O [Compound 13] | – | – | – | 3500 µM | 5.6% | 1.6 kcal/mol | –
CO[C@@H]1O[C@H](C)[C@H](O[C@H]2O[C@H](CO)[C@H](O)[C@H](O)[C@H]2O)[C@H](O)[C@H]1O [Compound 4] | – | – | – | 4200 µM | 4.7% | 1.7 kcal/mol | –
CO[C@@H]1O[C@H](CO)[C@H](O[C@H]2O[C@H](CO)[C@H](O)[C@H](OC)[C@H]2O)[C@H](O)[C@H]1O [Compound 11, Methyl 4-O-(3-O-methyl-α-D-galactopyranosyl)-β-D-galactopyranoside] | – | – | – | 87 µM | 220% | -0.43 kcal/mol | inhibitory power (in words): marked increase in the inhibitory power
CO[C@@H]1O[C@H](CO)[C@H](O[C@H]2O[C@H](C)[C@H](O)[C@H](O)[C@H]2O)[C@H](O)[C@H]1O [Compound 8] | – | – | – | 3700 µM | 5.3% | 1.63 kcal/mol | –
CC[C@@H]1[C@@H](O)[C@H](OC)O[C@H](CO)[C@@H]1O[C@H]1O[C@H](CO)[C@H](O)[C@H](O)[C@H]1O [Compound 16] | – | – | – | 3800 µM | 5.1% | 1.65 kcal/mol | –
OCC(O)CO[C@@H]1O[C@H](CO)[C@H](O[C@H]2O[C@H](CO)[C@H](O)[C@H](O)[C@H]2O)[C@H](O)[C@H]1O (stereo partly shown) [Compound 21] | 130 µM | 150% | -0.9 kJmol^-1 | – | – | – | –
OC[C@H]1O[C@H](O[C@@H]2[C@H](O)[C@@H](O)C(O)O[C@@H]2CO)[C@H](O)[C@@H](O)[C@H]1O (stereo partly shown) [Compound 24] | 1400 µM | 14% | 4.6 kJmol^-1 | – | – | – | –
CO[C@@H]1O[C@H](CO)[C@H](O[C@H]2O[C@H](CO)[C@@H](O)[C@H](O)[C@H]2O)[C@H](O)[C@H]1O [Compound 17] | – | – | – | 5100 µM | 3.8% | 1.82 kcal/mol | –
CO[C@@H]1O[C@H](CO)[C@H](O[C@@H]2C[C@@H](O)[C@@H](O)[C@@H](CO)O2)[C@H](O)[C@H]1O [Compound 5] | – | – | – | 2600 µM | 7.6% | 1.43 kcal/mol | –
CCS[C@@H]1O[C@H](CO)[C@H](O[C@H]2O[C@H](CO)[C@H](O)[C@H](O)[C@H]2O)[C@H](O)[C@H]1O [Compound 28, Ethyl 1-thio-4-O-(α-D-galactopyranosyl)-β-D-galactopyranoside] | – | – | – | – | – | – | IC50 [5]: 16.3 µM; Inhib. power (%) [6]: 266%; ΔΔG (kJmol^-1) [6]: -2.3 kJmol^-1
CCCCS(=O)(=O)CC(CO[C@@H]1O[C@H](CO)[C@H](O[C@H]2O[C@H](CO)[C@H](O)[C@H](O)[C@H]2O)[C@H](O)[C@H]1O)CS(=O)(=O)CCCC [Compound 27, 3-Butylsulfonyl-2-butylsulfonylmethylpropyl 4-O-α-D-galactopyranosyl-β-D-galactopyranoside] | – | – | – | – | – | – | IC50 [5]: 2.3 µM; Inhib. power (%) [6]: 1887%; ΔΔG (kJmol^-1) [6]: -6.8 kJmol^-1
COC[C@H]1O[C@@H](OC)[C@H](O)[C@@H](O)[C@H]1O[C@H]1O[C@H](CO)[C@H](O)[C@H](O)[C@H]1O [Compound 10] | – | – | – | > 25000 µM | < 1% | > 2.63 kcal/mol | –
C[Si](C)(C)CCO[C@@H]1O[C@H](CO)[C@@H](O[C@@H]2O[C@H](CO)[C@H](O[C@H]3O[C@H](CO)[C@H](O)[C@H](O)[C@H]3O)[C@H](O)[C@H]2O)[C@H](O)[C@H]1O [Compound 22] | 260 µM | 75% | 0.7 kJmol^-1 | – | – | – | –
CO[C@H]1C[C@@H](O)[C@@H](O[C@H]2O[C@H](CO)[C@H](O)[C@H](O)[C@H]2O)[C@@H](CO)O1 [Compound 2] | – | – | – | 350 µM | 56% | 0.335 kcal/mol | –
CCO[C@@H]1O[C@H](CO)[C@@H](O[C@@H]2O[C@H](CO)[C@H](O)[C@H](O)[C@H]2O)[C@H](O)[C@H]1O [Compound 26, Galβ1-4GlcβOCH2 CH3, reference compound] | > 25000 µM | < 1.0% | > 11 kJmol^-1 | – | – | – | –
CCO[C@@H]1O[C@H](CO)[C@H](O[C@H]2O[C@H](CO)[C@H](O)[C@H](O)[C@H]2O)[C@H](O)[C@H]1O [Compound 18] | 130 µM | 150% | -0.9 kJmol^-1 | – | – | – | –
OC[C@H]1O[C@H](O[C@@H]2[C@H](O)[C@@H](O)[C@H](OCCSCCCCCCCCCSCCO[C@@H]3O[C@H](CO)[C@H](O[C@H]4O[C@H](CO)[C@H](O)[C@H](O)[C@H]4O)[C@H](O)[C@H]3O)O[C@@H]2CO)[C@H](O)[C@@H](O)[C@H]1O [Compound 25] | 6.8 µM | 2900% | -7.8 kJmol^-1 | – | – | – | inhibitory power (in words): very high inhibitory power
CO[C@@H]1O[C@H](CO)[C@H](O[C@H]2O[C@H](CO)[C@H](O)[C@H](O)[C@H]2O)[C@H](OC)[C@H]1O [Compound 9] | – | – | – | 1600 µM | 12% | 1.17 kcal/mol | –
CO[C@@H]1O[C@H](CF)[C@H](O[C@H]2O[C@H](CO)[C@H](O)[C@H](O)[C@H]2O)[C@H](O)[C@H]1O [Compound 12] | – | – | – | 9300 µM | 2.1% | 2.15 kcal/mol | –
CC(C)CO[C@@H]1O[C@H](CO)[C@H](O[C@H]2O[C@H](CO)[C@H](O)[C@H](O)[C@H]2O)[C@H](O)[C@H]1O [Compound 19] | 87 µM | 220% | -1.8 kJmol^-1 | – | – | – | –
CO[C@@H]1O[C@H](CO)[C@H](O[C@H]2O[C@H](CO)C[C@H](O)[C@H]2O)[C@H](O)[C@H]1O [Compound 7] | – | – | – | 10000 µM | 1.9% | 2.2 kcal/mol | –
